{
  "source": "patent US20080070860A1",
  "about": "“Adenosine Analogs Useful as Anti-Bacterial and Anti Protozoan Agents” (UTI LIMITED PARTNERSHIP, priority 2005, published 2008)",
  "data": [
    {"target": "T1, adenosine phosphorylase (Escherichia coli, UniProt P0ABP8)", "T1 construct": "assayed using the cell free lysate of E. coli as enzyme source; endogenous in cells; host or cells: Escherichia coli DH5alpha (cell-free lysate, 10,000 x g supernatant)", "T1 sequence (P0ABP8 2-239)": "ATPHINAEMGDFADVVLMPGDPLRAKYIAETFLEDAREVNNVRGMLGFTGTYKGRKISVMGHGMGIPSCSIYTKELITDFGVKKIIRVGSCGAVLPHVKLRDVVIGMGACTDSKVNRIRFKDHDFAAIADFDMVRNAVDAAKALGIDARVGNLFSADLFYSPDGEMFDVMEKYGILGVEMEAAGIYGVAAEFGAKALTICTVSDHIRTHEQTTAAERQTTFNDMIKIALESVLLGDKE", "assay": "Adenosine phosphorylase assay (cleavage of nucleoside analog to base, E. coli cell free lysate, HPLC)", "format": "biochemical, Escherichia coli DH5alpha", "conditions": "100 μM nucleoside analog, 20 min, 50 mM phosphate pH 7.4", "description": "Escherichia coli DH5alpha cells were used as the source of adenosine phosphorylase to test the compounds of the present invention. E. coli DH5 alpha cells were harvested in log phase and collected by centrifugation. Cells were lysed by sonication, centrifuged at 10,000×g for 30 min and the supernatant was recovered for assay or storage at −60° C.\nAdenosine phosphorylase activity was assayed using the cell free lysate of E. coli as enzyme source for catalysis of the cleavage of nucleoside analogs to their corresponding base analogs in the presence of 50 mM phosphate at pH 7.4. Reaction products were subjected to separation by reverse phase high performance liquid chromatography (HPLC) equipped with continuous scanning diode array detector as described below. Substrates and products were identified by retention time and UV spectra of their peaks.\nSamples for HPLC were prepared post reaction by deproteination with 10% v/v of 50% TCA. Following centrifugation at 10,000 g for 5 min the supernatant was recovered for neutralization. A minimal amount of bromophenol blue was added and the sample was titrated with alamine-freon. Following a further centrifugation at 10,000 g for 5 min, the neutralized sample may be stored at −60° C.\nNucleosides and bases in a 10 μl sample were separated on an HPLC equipped with a scanning UV detector from 220 to 320 nm at 5 nm intervals, utilizing a reverse phase Waters Symmetry C18, 4.6×150 mm, 5 um column in tandem with a Waters guard column.\nCompounds were identified by retention time and UV spectra at peak height as collected during separation.\nThe relative rate of conversion of 100 μM nucleoside analog to the corresponding base in 20 min (measured as the % of analog converted) was determined for the following compounds: 5′-deoxyadenosine, 41%; 2-chloroadenosine, 31%; 2-chloro-5′-deoxyadenosine, 8%; 2-fluoro-5′-deoxyadenosine, >80%; 6-thiopurine-5′-deoxyriboside, 61%; 2-amino-5′-deoxyadenosine, 7%.", "units": {"relative rate of conversion of nucleoside analog to the corresponding base (% of analog converted)": "%"}, "values": [
      {"smiles": "Nc1nc(Cl)nc2c1ncn2[C@@H]1O[C@H](CO)[C@@H](O)[C@H]1O", "note": "[2-chloroadenosine, reference compound]", "relative rate of conversion of nucleoside analog to the corresponding base (% of analog converted)": 31},
      {"smiles": "C[C@H]1O[C@@H](n2cnc3c(N)nc(F)nc32)[C@H](O)[C@@H]1O", "note": "[2-fluoro-5′-deoxyadenosine]", "relative rate of conversion of nucleoside analog to the corresponding base (% of analog converted)": "> 80"},
      {"smiles": "C[C@H]1O[C@@H](n2cnc3c(S)ncnc32)[C@H](O)[C@@H]1O", "note": "[6-thiopurine-5′-deoxyriboside, 6-mercaptopurine-5′-deoxy-β-D-riboside]", "relative rate of conversion of nucleoside analog to the corresponding base (% of analog converted)": 61},
      {"smiles": "C[C@H]1O[C@@H](n2cnc3c(N)ncnc32)[C@H](O)[C@@H]1O", "note": "[5′-deoxyadenosine]", "relative rate of conversion of nucleoside analog to the corresponding base (% of analog converted)": 41},
      {"smiles": "C[C@H]1O[C@@H](n2cnc3c(N)nc(N)nc32)[C@H](O)[C@@H]1O", "note": "[2-amino-5′-deoxyadenosine]", "relative rate of conversion of nucleoside analog to the corresponding base (% of analog converted)": 7},
      {"smiles": "C[C@H]1O[C@@H](n2cnc3c(N)nc(Cl)nc32)[C@H](O)[C@@H]1O", "note": "[2-chloro-5′-deoxyadenosine]", "relative rate of conversion of nucleoside analog to the corresponding base (% of analog converted)": 8}
    ]},
    {"test_system": "not given", "assay": "not given", "conditions": "not given", "units": {"melting point": "°C"}, "values": [
      {"smiles": "COC[C@H]1O[C@@H](n2cnc3c(N)nc(F)nc32)[C@H](O)[C@@H]1O", "melting point": "231 to 233"},
      {"smiles": "C[C@H]1O[C@@H](n2cnc3c(N)nc(F)nc32)[C@H](O)[C@@H]1O", "note": "[2-fluoro-5′-deoxyadenosine]", "melting point": "244 to 245"},
      {"smiles": "C[C@H]1O[C@@H](n2cnc3c(N)nc(N)nc32)[C@H](O)[C@@H]1O", "note": "[2-amino-5′-deoxyadenosine]", "melting point": "135 to 138"},
      {"smiles": "COC[C@H]1O[C@@H](n2cnc3c(N)nc(Cl)nc32)[C@H](O)[C@@H]1O", "melting point": "92 to 94"}
    ]},
    {"target": "adenosine kinase (Homo sapiens, UniProt P55263)", "sequence (P55263 whole entry, species assumed)": "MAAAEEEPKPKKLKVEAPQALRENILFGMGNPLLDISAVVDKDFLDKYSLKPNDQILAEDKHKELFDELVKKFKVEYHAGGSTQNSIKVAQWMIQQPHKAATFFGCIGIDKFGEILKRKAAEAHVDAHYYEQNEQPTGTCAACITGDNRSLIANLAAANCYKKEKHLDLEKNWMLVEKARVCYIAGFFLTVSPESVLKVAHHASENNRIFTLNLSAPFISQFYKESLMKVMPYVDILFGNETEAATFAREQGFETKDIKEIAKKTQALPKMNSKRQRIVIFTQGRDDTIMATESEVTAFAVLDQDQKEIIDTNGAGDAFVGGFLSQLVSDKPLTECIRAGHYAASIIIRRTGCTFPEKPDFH", "assay": "not given", "conditions": "Kowaluk et al. 1998; cited from earlier work", "values": [
      {"smiles": "NC[C@H]1O[C@@H](n2cnc3c(N)ncnc32)[C@H](O)[C@@H]1O", "note": "[5′-deoxy-5′-amino-adenosine]", "inhibition of adenosine kinase": "potent inhibitor"}
    ]},
    {"target": "T2, adenosine deaminase (Homo sapiens, UniProt P00813)", "T2 sequence (P00813 1-363)": "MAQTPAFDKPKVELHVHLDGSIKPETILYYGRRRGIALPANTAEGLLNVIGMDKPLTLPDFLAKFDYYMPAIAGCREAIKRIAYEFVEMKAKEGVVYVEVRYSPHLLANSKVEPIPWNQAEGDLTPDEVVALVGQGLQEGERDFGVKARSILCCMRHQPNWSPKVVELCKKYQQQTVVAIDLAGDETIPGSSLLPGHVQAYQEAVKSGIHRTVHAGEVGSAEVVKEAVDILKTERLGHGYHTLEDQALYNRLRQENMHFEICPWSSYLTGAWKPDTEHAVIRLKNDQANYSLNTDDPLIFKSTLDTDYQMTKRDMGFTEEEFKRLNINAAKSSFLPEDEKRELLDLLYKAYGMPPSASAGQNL", "assay": "not given", "conditions": "cited from earlier work", "values": [
      {"smiles": "Cc1ncnc2nc[nH]c12", "note": "[6-methylpurine]", "susceptibility to adenosine deaminase": "quite refractory"}
    ]}
  ]
}
